# Assay results: patent US3959283A, “Amino-derivatives of 1,4-benzodioxan” (Laboratoire L. Lafon, priority 1974, dated 1976)
# Counter-ions that a name gives are not always drawn.
# Key:
# [1] = tested on: adrenergic receptors; assay: Tension effects of adrenalin after intraduodenal product of Example 11; type: in vivo, dogs; settings: Experiment A
# Source text: (§1) The product was investigated by intraduodenal administration to dogs anaesthetised with Nembutal, in four experiments, A B C and D.
# [2] = tested on: reflex relating to occlusion of the carotids; assay: Effect on the amines and reflexes: occlusion of the carotids; settings: in vivo
# Source text: (§2) In Table III below, the effects of the products on the amines and the reflexes have been summarised.
# [3] = tested on: dogs; assay: Intraduodenal administration to dogs anaesthetised with Nembutal (product of Example 11), Experiments A to D; type: in vivo
# Procedure: Complementary experiments carried out on anaesthetised dogs have been given below for the product of Example 11 administered intraduodenally (ID).
# as §1
# The arterial pressure is not altered. The pulse rate increases by at most 20% after 15 minutes and then decreases slowly (+ 14% after 30 minutes).
# After 1 hour, the femoral flow rate has still been increased by 100% (from 36 to 72 ml/minute).
# The α-receptors of the animal are already blocked. […] The vertebral flow rate is 20 ml/minute.
# 15 hr. […] 15 hr. […] 16 hr. […] 16 hr. 23 min. Propanolol: 0.3 mg/kg administered intravenously. […] The arterial pressure increases by approximately 10%. […] The pulse rate increases by 20 to 33%. […] The femoral flow rate is increased by only 25%.
# [4] = tested on: adrenergic receptors; assay: Inhibition/reversal of tension effects of adrenalin, intravenous (products of Examples 11 to 13); type: in vivo; settings: i.v.
# Procedure: the doses of CRL 40,150 from 0.5 to 4 mg/kg being administered successively.
# [5] = tested on: peripheral vagus; assay: Effect on the amines and reflexes: stimulation of the peripheral vagus; settings: in vivo
# Source text: as §2
# [6] = tested on: adrenalin; assay: Effect on the amines and reflexes: adrenalin; settings: in vivo
# Source text: as §2
# [7] = tested on: central vagus; assay: Effect on the amines and reflexes: stimulation of the central vagus; settings: in vivo
# Source text: as §2
# [8] = tested on: acetylcholine; assay: Effect on the amines and reflexes: acetylcholine; settings: in vivo
# Source text: as §2
# [9] = Acute intravenous toxicity in mice, products of Examples 10 to 13 (LD50); settings: mouse, in vivo, i.v., group of male and female mice
# Source text: (a) determined on a group of male and female mice,
# (b) determined on a group consisting solely of female mice.
# [10] = tested on: dogs; assay: Hypotensive effect in dogs anaesthetised with Nembutal; type: in vivo
# Source text: This hypotension manifests itself especially in a decrease in the differential pressure, the lowering of the diastolic pressure being greater than that of the systolic pressure.
# [11] = Experiment A, 15 and 30 mg/kg ID
# [12] = Experiment B, second administration 30 mg/kg ID, after 1 hour
# [13] = Experiment B, second administration 30 mg/kg ID, after 2 hours
# [14] = Experiment B, third administration 30 mg/kg ID
# [15] = Experiment D, second 15 mg/kg ID
smiles,measurement,setting,value
"COc1cc(OC)cc(OCCN2CCN(CC3COc4ccccc4O3)CC2)c1 (centres unmarked) [Example 11, 1-[2-(1,4-Benzodioxanyl)-methyl]-4-[2-(3,5-dimethoxyphenoxy)-ethyl]-piperazine dihydrochloride]",tension effects of adrenalin,[1]; 5 minutes after the first dose (15 mg/kg ID),reversed
same,passage through the intestinal barrier,[1]; ID,passed through the intestinal barrier
same,Effect on the amines and reflexes: reflex relating to occlusion of the carotids,[2],reduced
same,arterial pressure,[3]; [11],not altered
same,effect on the femoral flow rate,[3]; [11],no effect
same,effect on the vertebral flow rate,[3]; [11],no effect
same,increase in pulse rate,"[3]; Experiment A, after 15 minutes",at most 20%
same,increase in pulse rate,"[3]; Experiment A, after 30 minutes",14%
same,increase in femoral flow rate,"[3]; Experiment B, 15 mg/kg ID, 5 minutes",134%
same,increase in femoral flow rate,"[3]; Experiment B, 15 mg/kg ID, 15 minutes",194%
same,increase in femoral flow rate,"[3]; Experiment B, 15 mg/kg ID, 1 hour",100%
same,femoral flow rate,"[3]; Experiment B, 15 mg/kg ID, 1 hour, from 36",72 mL/min
same,increase in differential arterial pressure,"[3]; Experiment B, ID",30%
same,increase in the pulse rate,"[3]; Experiment B, ID",≤ 30%
same,decrease in average arterial pressure,"[3]; Experiment B, ID, at most",≤ 18%
same,average arterial pressure,"[3]; Experiment B, ID, lowest, from 165",135 mm Hg
same,femoral flow rate,[3]; [12],104 mL/min
same,increase in femoral flow rate,[3]; [12],184%
same,femoral flow rate,[3]; [13],92 mL/min
same,increase in femoral flow rate,[3]; [13],156%
same,change in femoral flow rate,"[3]; Experiment B, second administration 30 mg/kg ID, first 45 minutes",does not change the flow rate further
same,femoral flow rate,[3]; [14],108 mL/min
same,increase in femoral flow rate,[3]; [14],200%
same,effect on the femoral flow rate,"[3]; Experiment C, 15 mg/kg ID",zero
same,increase in vertebral flow rate,"[3]; Experiment C, 15 mg/kg ID, after 60 minutes",35%
same,vertebral flow rate,"[3]; Experiment C, 15 mg/kg ID, after 60 minutes, from 20",27 mL/min
same,average pressure,"[3]; Experiment D, 15 mg/kg ID",remaining constant
same,differential pressure,"[3]; Experiment D, 15 mg/kg ID",large increase in the differential pressure
same,increase in arterial pressure,"[3]; Experiment D, 15 mg/kg ID",approximately 10%
same,increase in femoral flow rate,"[3]; Experiment D, 15 mg/kg ID, 10 minutes",170%
same,femoral flow rate,"[3]; Experiment D, 15 mg/kg ID, 10 minutes, from 48",130 mL/min
same,increase in femoral flow rate,"[3]; Experiment D, 15 mg/kg ID, 30 minutes",100%
same,increase in femoral flow rate,"[3]; Experiment D, 15 mg/kg ID, 75 minutes",50%
same,increase in vertebral flow rate,"[3]; Experiment D, 15 mg/kg ID, first administration, at most",≤ 16%
same,increase in femoral flow rate,[3]; [15],25%
same,vertebral flow rate,[3]; [15],70 mL/min
same,increase in vertebral flow rate,"[3]; Experiment D, second 15 mg/kg ID, after 15 minutes",94%
same,dose from which tension effects of adrenalin are inhibited and then reversed,[4],≥ 0.37 mg/kg
same,Effect on the amines and reflexes: stimulation of the peripheral vagus,[5],not changed
same,Effect on the amines and reflexes: adrenalin,[6],reversal
same,Effect on the amines and reflexes: stimulation of the central vagus,[7],not changed
same,Effect on the amines and reflexes: acetylcholine,[8],no change
same,LD50,[9],60 mg/kg
same,hypotension,[10],40%
